Where a name gives a salt, the structure may show the parent alone.
The compounds below were run against T1, h5-HT5A receptor (Homo sapiens, UniProt P47898) (assay: [3H]5-CT binding assay h5-HT5A). Settings: membranes from HEK293 cells expressing h5-HT5A, 2.5 nM [3H]5-CT; read-out: Binding affinity 5-HT5A (Ki).
T1 construct: expressed in transfected cells; host or cells: HEK293
Summary of the method: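 Membranes from HEK293 cells stably expressing h5-HT5A incubated with 2.5 nM [3H]5-CT and compound in 100 mM Tris-HCl pH 7.7, 1 mM EDTA, 75 min at 30° C. Nonspecific binding with 10 μM methiothepine; filtration and scintillation counting give Ki or IC50.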

T1 sequence (P47898 whole entry): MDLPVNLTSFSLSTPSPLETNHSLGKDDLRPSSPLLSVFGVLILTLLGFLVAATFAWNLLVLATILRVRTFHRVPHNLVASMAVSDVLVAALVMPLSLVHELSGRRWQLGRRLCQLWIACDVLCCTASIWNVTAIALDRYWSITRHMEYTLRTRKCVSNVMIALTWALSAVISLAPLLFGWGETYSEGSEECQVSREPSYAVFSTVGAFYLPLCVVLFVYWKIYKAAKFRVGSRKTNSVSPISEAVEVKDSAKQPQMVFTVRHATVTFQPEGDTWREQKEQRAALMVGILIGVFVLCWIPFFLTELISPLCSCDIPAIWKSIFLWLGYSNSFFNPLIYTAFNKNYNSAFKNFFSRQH

Compound	Ki [nM]
COc1cccc(OC)c1CNC(=N)Nc1nc(C(F)(F)F)cs1 [Example 53, N-(2,6-dimethoxybenzyl)-N′-[4-(trifluoromethyl)-1,3-thiazole-2-yl]guanidine]	50 to 500
COc1cccc(CNC(=N)Nc2nccs2)c1 [Example 14, N-(3-methoxybenzyl)-N′-1,3-thiazole-2-ylguanidine hydrochloride]	50 to 500
COc1cccc(OC)c1CNC(=N)Nc1nc(-c2ncccc2Cl)cs1 [Example 164, N-[4-(3-chloropyridine-2-yl)-1,3-thiazole-2-yl]-N′-(2,6-dimethoxybenzyl)guanidine]	< 50
COc1cccc(Cl)c1CNC(=N)Nc1nc(-c2ccc(F)cc2)cs1 [Example 136, N-(2-chloro-6-methoxybenzyl)-N′-[4-(4-fluorophenyl)-1,3-thiazole-2-yl]guanidine]	50 to 500
COc1cccc(OC)c1CNC(=N)Nc1nc(CNC(=O)OC(C)(C)C)cs1 [Example 125, tert-butyl [(2-{[[(2,6-dimethoxybenzyl)amino](imino)methyl]amino}-1,3-thiazole-4-yl)methyl]carbamate]	< 50
COc1ccccc1CNC(=N)Nc1cc(-c2ccc(C)cc2)[nH]n1 [Example 206, N-(2-methoxybenzyl)-N′-[5-(4-methylphenyl)-1H-pyrazole-3-yl]guanidine]	< 50
COc1ccccc1CNC(=N)Nc1nc(-c2cccc(F)c2)cs1 [Example 99, N-[4-(3-fluorophenyl)-1,3-thiazole-2-yl]-N′-(2-methoxybenzyl)guanidine]	50 to 500
COc1cccc(OC)c1CNC(=N)Nc1nc(-c2ccc(C#N)cc2)cs1 [Example 60, N-[4-(4-cyanophenyl)-1,3-thiazole-2-yl]-N′-(2,6-dimethoxybenzyl)guanidine]	< 50
CCOc1ccc2nc(NC(=N)NCc3ccccc3OC)sc2c1 [Example 170, N-(6-ethoxy-1,3-benzothiazole-2-yl)-N′-(2-methoxybenzyl)guanidine fumarate]	50 to 500
COc1cccc(OC)c1CNC(=N)Nc1ncc(C)s1 [Example 55, N-(2,6-dimethoxybenzyl)-N′-(5-methyl-1,3-thiazole-2-yl)guanidine]	< 50
COc1cccc(OC)c1CNC(=N)Nc1nc(-c2ccccc2Cl)cs1 [Example 44, N-[4-(2-chlorophenyl)-1,3-thiazole-2-yl]-N′-(2,6-dimethoxybenzyl)guanidine]	< 50
COc1cc(F)ccc1-c1csc(NC(=N)NCc2c(OC)cccc2OC)n1 [Example 111, N-(2,6-dimethoxybenzyl)-N′-[4-(4-fluoro-2-methoxyphenyl)-1,3-thiazole-2-yl]guanidine]	< 50
COc1cccc(OC)c1CNC(=N)Nc1nc2ccccc2[nH]1 [Example 182, N-1H-benzimidazole-2-yl-N′-(2,6-dimethoxybenzyl)guanidine diacetate]	< 50
COc1cccc(OC)c1CNC(=N)Nc1cc(-c2ccccc2)[nH]n1 [Example 202, N-(2,6-dimethoxybenzyl)-N′-(5-phenyl-1H-pyrazole-3-yl)guanidine]	< 50
Cc1ccc(C)c(CNC(=N)Nc2nccs2)c1 [Example 4, N-(2,5-dinnethylbenzyl)-N′-1,3-thiazole-2-ylguanidine hydrochloride]	50 to 500
COc1cccc(OC)c1CNC(=N)Nc1nc(C2CCCN2C(=O)OC(C)(C)C)cs1 (centres unmarked) [Example 120, tert-butyl 2-(2-{[[(2,6-dimethoxybenzyl)amino](imino)methyl]amino}-1,3-thiazole-4-yl)pyrrolidine-1-carboxylate]	50 to 500
COc1cccc(OC)c1CNC(=N)Nc1nc(-c2ccsc2)cs1 [Example 72, N-(2,6-dimethoxybenzyl)-N′-[4-(3-thienyl)-1,3-thiazole-2-yl]guanidine acetate]	< 50
COc1ccccc1CNC(=N)Nc1nc(-c2ccc(Cl)cc2)cs1 [Example 35, N-[4-(4-chlorophenyl)-1,3-thiazole-2-yl]-N′-(2-methoxybenzyl)guanidine]	> 500
COc1ccccc1CCNC(=N)Nc1nccs1 [Example 16, N-[2-(2-methoxyphenyl)ethyl]-N′-1,3-thiazole-2-ylguanidine hydrochloride]	> 500
COc1cccc(OC)c1CNC(=N)Nc1ncc(-c2ccccc2)s1 [Example 66, N-(2,6-dimethoxybenzyl)-M-(5-phenyl-1,3-thiazole-2-yl)guanidine hydrobromide]	< 50
COc1cccc(OC)c1CNC(=N)Nc1nc(C(C)C)cs1 [Example 131, N-(2,6-dimethoxybenzyl)-N′-(4-isopropyl-1,3-thiazole-2-yl)guanidine]	< 50
COc1cccc(OC)c1CNC(=N)Nc1nc(-c2ncccn2)cs1 [Example 122, N-(2,6-dimethoxybenzyl)-N′-(4-pyrimidine-2-yl-1,3-thiazole-2-yl)guanidine hydrobromide]	< 50

Compound	Ki [nM]
N=C(NCc1ccccc1OCc1ccccc1)Nc1nccs1 [Example 17, N-[2-(benzyloxy)benzyl]-N′-1,3-thiazole-2-ylguanidine]	50 to 500
COc1ccc(-c2csc(NC(=N)NCc3c(OC)cccc3OC)n2)cc1 [Example 58, N-(2,6-dimethoxybenzyl)-N′-[4-(4-methoxyphenyl)-1,3-thiazole-2-yl]guanidine]	< 50
COc1cccc(OC)c1CNC(=N)Nc1nc2ccc(C)cc2s1 [Example 169, N-(2,6-dimethoxybenzyl)-N′-(6-methyl-1,3-benzothiazole-2-yl)guanidine fumarate]	< 50
COc1cccc(OC)c1CNC(=N)Nc1nc(C2CCCN2)cs1 (centres unmarked) [Example 147, N-(2,6-dimethoxybenzyl)-N′-(4-pyrrolidine-2-yl-1,3-thiazole-2-yl)guanidine hydrochloride]	< 50
COc1cccc(OC)c1CNC(=N)Nc1nc(C2CCN(S(C)(=O)=O)CC2)cs1 [Example 163, N-(2,6-dimethoxybenzyl)-N′-{4-[1-(methylsulfonyl)piperidine-4-yl]-1,3-thiazole-2-yl}guanidine]	< 50
COc1cccc(OC)c1CNC(=N)Nc1nc(C2CCCN2C(C)=O)cs1 (centres unmarked) [Example 148, N-[4-(1-acetylpyrrolidine-2-yl)-1,3-thiazole-2-yl]-N′-(2,6-dimethoxybenzyl)guanidine]	< 50
COc1ccccc1-c1csc(NC(=N)NCc2c(OC)cccc2OC)n1 [Example 75, N-(2,6-dimethoxybenzyl)-N′-[4-(2-methoxyphenyl)-1,3-thiazole-2-yl]guanidine hydrobromide]	< 50
COc1ccccc1CNC(=N)Nc1nc(-c2ccccc2Cl)cs1 [Example 43, N-[4-(2-chlorophenyl)-1,3-thiazole-2-yl]-N′-(2-methoxybenzyl)guanidine (2E)-But-2-endioate]	50 to 500
COc1ccc2ccccc2c1CNC(=N)Nc1nc(-c2ccccc2)cs1 [Example 146, N-[(2-methoxy-1-naphthyl)methyl]-N′-(4-phenyl-1,3-thiazole-2-yl)guanidine]	50 to 500
COC(=O)Cc1csc(NC(=N)NCc2c(OC)cccc2OC)n1 [Example 49, Methyl-(2-{[[(2,6-dimethoxybenzyl)amino](imino)methyl]amino}-1,3-thiazole-4-yl)acetate]	< 50
COc1cccc(F)c1CNC(=N)Nc1nc(-c2ccccc2)cs1 [Example 59, N-(2-fluoro-6-methoxybenzyl)-N′-(4-phenyl-1,3-thiazole-2-yl)guanidine]	< 50
COc1cccc(OC)c1CNC(=N)Nc1nnc(C)[nH]1 [Example 181, N-(2,6-dimethoxybenzyl)-N′-(5-methyl-4H-1,2,4-triazole-3-yl)guanidine]	< 50
CC(=O)c1cccc(OCCCNC(=N)Nc2nccs2)c1 [Example 23, N-[3-(3-acetylphenoxy)propyl]-N′-1,3-thiazole-2-ylguanidine (2E)-But-2-endioate]	> 500
COc1cccc(Cl)c1CNC(=N)Nc1nc(-c2ccc(F)cc2)c[nH]1 [Example 195, N-(2-chlor-6-methoxybenzyl)-N′-[4-(4-fluorphenyl)-1H-imidazole-2-yl]guanidine acetate]	< 50
COc1cccc(OC)c1CNC(=N)Nc1nc(-c2cccc(Cl)c2)cs1 [Example 89, N-[4-(3-chlorophenyl)-1,3-thiazole-2-yl]-N′-(2,6-dimethoxybenzyl)guanidine hydrobromide]	< 50
COc1cccc(C)c1CNC(=N)Nc1nc(-c2ccc(F)cc2)cs1 [Example 138, N-[4-(4-fluorophenyl)-1,3-thiazole-2-yl]-N′-(2-methoxy-6-methylbenzyl)guanidine]	< 50
COc1ccccc1CNC(=N)Nc1nnc(C)[nH]1 [Example 185, N-(2-methoxybenzyl)-N′-(5-methyl-4H-1,2,4-triazole-3-yl)guanidine acetate]	> 500
COc1cccc(OC)c1CNC(=N)Nc1nc(-c2ccc(F)cc2)c[nH]1 [Example 191, N-(2,6-dimethoxybenzyl)-N′-[4-(4-fluorophenyl)-1H-imidazole-2-yl]guanidine acetate]	< 50
COc1cccc(OC)c1CNC(=N)Nc1nc(C2CCCN2C(C)C)cs1 (centres unmarked) [Example 156, N-(2,6-dimethoxybenzyl)-N′-[4-(1-isopropylpyrrolidine-2-yl)-1,3-thiazole-2-yl]guanidine]	50 to 500
COc1ccccc1CNC(=N)Nc1nc2ccccc2[nH]1 [Example 93, N-1H-benzimidazole-2-yl-N′-(2-methoxybenzyl)guanidine acetate]	< 50
CCOC(=O)c1csc(NC(=N)NCc2c(OC)cccc2OC)n1 [Example 192, Ethyl 2-{[[(2,6-dimethoxybenzyl)amino](imino)methyl]amino}-1,3-thiazole-4-carboxylate acetate]	< 50
COc1cccc(OC)c1CNC(=N)Nc1nc(-c2ccc(N(C)C)cc2)cs1 [Example 110, N-(2,6-dimethoxybenzyl)-N′-{4-[4-(dimethylamino)phenyl]-1,3-thiazole-2-yl}guanidine hydrobromide]	< 50

— patent US8481576B2 (Abbott GmbH & Co. KG, priority 2004, dated 2013)
